Results: BindingDB's records for PubMed 8226867 (Synaptic Pharmaceutical, 1993)

Biological target: 5-hydroxytryptamine receptor 4 (Rattus norvegicus, UniProt Q62758)
Sequence (Q62758 whole entry): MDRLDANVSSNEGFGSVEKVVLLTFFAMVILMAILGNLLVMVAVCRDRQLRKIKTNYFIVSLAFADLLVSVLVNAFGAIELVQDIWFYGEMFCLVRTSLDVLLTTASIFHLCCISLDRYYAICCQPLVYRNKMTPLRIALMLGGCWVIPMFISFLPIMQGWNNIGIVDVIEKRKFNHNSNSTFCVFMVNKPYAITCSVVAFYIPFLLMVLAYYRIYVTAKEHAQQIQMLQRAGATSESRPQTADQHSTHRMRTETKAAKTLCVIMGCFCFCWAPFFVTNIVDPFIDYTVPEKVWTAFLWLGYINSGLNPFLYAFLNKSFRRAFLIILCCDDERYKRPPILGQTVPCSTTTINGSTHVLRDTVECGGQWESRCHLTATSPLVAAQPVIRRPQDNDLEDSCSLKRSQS

For COc1ccc2[nH]cc(CCN)c2c1 [tryptamine, 5-Methoxy], which Ki is on record?
The Ki was 316 nM.

COc1cc(N)c(Cl)cc1C(=O)NC1CN2CCC1CC2 (stereo unspecified) [ZACOPRIDE,R] was tested. Which Ki did it give?
Its Ki is 316 nM.

Biological target: 5-hydroxytryptamine receptor 4 (Mus musculus, UniProt P97288)
Sequence (P97288 whole entry): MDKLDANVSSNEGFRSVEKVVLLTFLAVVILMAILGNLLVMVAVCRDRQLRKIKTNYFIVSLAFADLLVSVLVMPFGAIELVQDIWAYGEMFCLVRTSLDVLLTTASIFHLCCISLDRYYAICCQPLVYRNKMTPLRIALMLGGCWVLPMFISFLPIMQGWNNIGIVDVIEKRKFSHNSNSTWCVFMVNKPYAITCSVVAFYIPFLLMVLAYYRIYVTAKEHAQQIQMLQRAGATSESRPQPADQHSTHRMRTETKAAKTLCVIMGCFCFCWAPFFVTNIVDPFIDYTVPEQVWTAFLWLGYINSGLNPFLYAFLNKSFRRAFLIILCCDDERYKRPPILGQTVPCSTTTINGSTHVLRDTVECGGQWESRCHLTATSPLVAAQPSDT

NCCc1c[nH]c2ccccc12 [1H-indole-3-ethanamine] was tested. Which Ki did it give?
The Ki was over 10000 nM.

Biological target: 5-hydroxytryptamine receptor 6 (Homo sapiens, UniProt P50406)
Sequence (P50406 whole entry): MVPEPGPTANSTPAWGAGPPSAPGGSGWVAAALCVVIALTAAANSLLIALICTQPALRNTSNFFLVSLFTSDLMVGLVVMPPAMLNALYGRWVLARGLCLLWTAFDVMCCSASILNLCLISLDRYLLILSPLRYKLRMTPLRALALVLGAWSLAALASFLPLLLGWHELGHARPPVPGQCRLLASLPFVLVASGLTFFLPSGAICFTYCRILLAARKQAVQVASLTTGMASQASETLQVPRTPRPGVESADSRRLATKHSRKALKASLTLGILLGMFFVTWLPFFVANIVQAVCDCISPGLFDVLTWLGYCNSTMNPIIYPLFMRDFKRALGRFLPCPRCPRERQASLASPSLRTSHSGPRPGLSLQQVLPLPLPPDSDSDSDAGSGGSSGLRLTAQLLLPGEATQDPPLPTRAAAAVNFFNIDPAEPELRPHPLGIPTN

How did the Ki turn out when Cc1nc2sccn2c(=O)c1CCN1CCC(=C(c2ccc(F)cc2)c2ccc(F)cc2)CC1 was run?
Its Ki is 16 nM.

For CN1C[C@@H](NS(=O)(=O)N(C)C)C[C@@H]2c3cccc4c3c(cn4C)C[C@H]21 [MESULERGINE], which Ki is on record?
The Ki was 1720 nM.

For CN1C[C@H](CNC(=O)OCc2ccccc2)C[C@@H]2c3cccc4c3c(cn4C)C[C@H]21 [METERGOLINE], which Ki is on record?
Its Ki is 61 nM.

How did the Ki turn out when NCCc1c[nH]c2ccc(C(N)=O)cc12 [[3H]-5-carboxamidotryptamine] was run?
The Ki was 253 nM.

For CCN(CC)C(=O)[C@@H]1C=C2c3cccc4[nH]c(Br)c(c34)C[C@H]2N(C)C1 [LSD,2-Bromo], which Ki is on record?
The Ki was 17.1 nM.

For CN1CC(C(=O)N[C@]2(C)O[C@@]3(O)C4CCCN4C(=O)[C@H](Cc4ccccc4)N3C2=O)CC2c3cccc4[nH]cc(c34)CC21 (stereo partly drawn) [7-Methyl-4,6,6a,7,8,9,10,10a-octahydro-indolo[4,3-fg]quinoline-9-carboxylic acid ((2R,5S,10bS)-5-benzyl-10b-hydroxy-2-methyl-3,6-dioxo-octahydro-oxazolo[3,2-a]pyrrolo[2,1-c]pyrazin-2-yl)-amide], which Ki is on record?
The Ki was 5.4 nM.

How did the Ki turn out when CC[C@@H](CO)NC(=O)[C@@H]1C=C2c3cccc4c3c(cn4C)C[C@H]2N(C)C1 was run?
The Ki was 372 nM.

Which Ki does the source give for c1ccc2c(N3CCNCC3)cccc2c1 here?
The Ki was 104 nM.
